From patent US20200100505A1, “MICROBIAL INSECTICIDE FOR CONTROL OF MULBERRY THRIPS” (FARMHANNONG CO., LTD., priority 2017, published 2020)

System: Western flower thrips
Assay: Insecticidal effect against thrips on caged potted tomato crop
Type: in vivo
Conditions: tomato pot in cage, granules 2 g per pot, clothianidin 0.02 g per pot
Method: An experiment on the insecticidal effect against thrips was carried out in a tomato crop. A population of the tomato crop having a height of 20 to 25 cm was used, and the tomato crop was put into a plastic cage (30×30×60 cm^3) equipped with a sieve with mesh smaller than that of Western flower thrips to prevent Western flower thrips from moving from a treatment zone, and an experiment was then performed.
A pot in which a tomato crop was planted, was treated with 2 g of the microbial insecticide granules of the present invention prepared in Example 1. Also, as the comparison group, the tomato crop was treated with an agricultural chemical (i.e., clothianidin) known to show a potent insecticidal effect against thrips at an amount of 0.02 g (i.e., an amount of 3 kg/10 a) per pot, and no insecticide was applied to the pot of the control group.

With `CN/C(=N\[N+](=O)[O-])NCc1cnc(Cl)s1` [clothianidin] as the compound, how does the “Thrips density After 20 days” value (after 20 days) read?
Its value is 3.7 ± 0.5 number/plant.

What about the “Thrips density After 40 days” value (after 40 days) of the same compound?
The value was 2.4 ± 0.4 number/plant.
